Test results published in patent US8389501B2, “Anticancer compound” (priority 2011, dated 2013).
Read-outs that look alike come from different tables or passages of the source.

How the values were obtained:
[1] = test system: PHA-activated T-cell proliferation; assay: PHA-activated T-cell proliferation assay (3H-thymidine incorporation); format: cell-based, human; details: for IC50: Homo sapiens, T-cell, PHA 5 μg/mL, 72 hours incubation; for effect on T-cell proliferation (in words): PHA-activated
Method: (§1) FIG. 2: Effect of Compounds 1-3 on phytohemagglutinin (PHA) T-cell proliferation and production. (2A) The bar graph represents effects of various concentrations of the test Compounds 1-3 after 72 h incubation with peripheral blood mononuclear cells at 37° C. Effect of compounds on T-cell proliferation response is compared with non-proliferated […] cells. The bar graph (2B) represents effects of various concentrations of the test Compounds 1-3 on production of IL-2 compared with (+ve) and without (−ve) PHA induced IL-2 production. Each bar represents the mean value of triplicate reading±SD.
The T-cell proliferation assay was performed as described by Nielson et al. (19). In this assay, isolated lymphocytes were stimulated by adding the phytohemagglutinin (PHA) in culture. The rate of proliferation and survival was measured by radiolabelled thymidine incorporation method. The lymphocytes were isolated as described by Boyum (20). A 50 μL of cell suspension (10^6/mL) was added to each well of a 96-well round bottom tissue culture plate. 50 μL of PHA was added in each well from the working solution (20 μg/mL) to have final concentration 5 μg/mL. The final volume was adjusted to 200 μL in each well by adding complete RPMI media. The plates were incubated at 37° C. for 72 hours (90% humidity, 5% CO2/air). Methyl-^3H thymidine (Amersham Pharmacia Biotech) 0.5 μCi was added in each well and incubated for further 18 hours. Cells were harvested on a filter mat (Type G-7) using cell harvester (INOTECH IH-280, Switzerland) and the radioactivity (CPM) was measured using a β-scintillation counter (LS 6500, Beckman Coulter, USA). (FIG. 2A)

[2] = test system: isolated polymorphoneutrophils (PMNs); assay: Oxidative burst, luminol-enhanced chemiluminescence, isolated PMNs; format: cell-based, human; details: for IC50: Homo sapiens, isolated PMNs, opsonized zymosan-A, luminol
Method: (§2) In addition to that, effects of these compounds on T-cells proliferation were also evaluated; investigating their (Compounds 2 and 3) ability to modulate PHA activated T-cell proliferation response and production of IL-2 cytokine.
(§3) Heparinized blood was obtained by vein puncture aseptically from healthy volunteers (25-38 years age). The buffy coat containing PMNs was collected by dextran sedimentation and the cells were isolated after the LSM density gradient centrifugation from the tube base. Cells were washed twice and suspended in Hank's Balance Salt Solution (Ca^2+ and Mg^2+ free) (HBSS^−−), pH 7.4. Neutrophils were purified from RBCs contamination using hypotonic solution. Cells were adjusted to their required concentration using Hank's Balance Salt Solution containing Ca^2+ and Mg^2+ (HBSS^++).
(§4) Luminol-enhanced chemiluminescence assay was performed as described by Helfand et al. (17), and Haklar et al. (18) with some modifications. Briefly, 25 μL diluted whole blood (1:200 dilution in sterile HBSS^++) or 25 μL of PMNs (1×10^6) cells were incubated with 25 μL of serially diluted compounds with concentration ranges between 3.2-50 mg/mL. Tests were performed in white 96-well plates, which were incubated at 37° C. for […] in the thermostated chamber of the luminometer. Opsonized zymosan-A, 25 μL, followed by 25 μL luminol (7×10^−5 M) along with HBSS^++ was added to each well to obtain a 100 μL volume/well. Wells received HBSS^++, and cells but no compounds were used as a negative control. Chemiluminescence peaks were recorded with the Luminometer. Results were monitored as chemiluminescence relative light units (RLU) with peak and total integral values.

[3] = test system: IL-2 production; assay: IL-2 cytokine production by PHA activated peripheral blood mononuclear cells (ELISA); format: cell-based, human
Method: as §1
IL-2 cytokine was produce from peripheral blood mononuclear cells (PBMC). IL-2 cytokine production by PHA activated cells in the presence or absence of test compounds was studied by ELISA using the human cytokine kit (Diaclone, Besancon Cedex France). Briefly, freshly prepared mononuclear cells (10^5/well) were cultured in 96-well microtiter flat bottom plate in the presence or absence of 5 μg/mL PHA. Four different concentrations (10.33-331.13 μM/mL) of compounds, along with PHA, were used in this assay. The culture plate was incubated at 37° C. for 18 h. Then the supernatant was collected and analyzed for IL-2 cytokine production following kit manufacturer instructions.

[4] = test system: whole blood phagocytes; assay: Oxidative burst, luminol-enhanced chemiluminescence, whole blood; format: cell-based, human; details: for IC50: Homo sapiens, diluted whole blood, opsonized zymosan-A, luminol
Method: as §2, §3, §4

[5] = test system: human lung cancer cell line (NCI-H460); assay: Sulforhodamine B (SRB) growth inhibition assay; format: cell-based; details: for GI50: Homo sapiens
Method: The sulforhodamine B (SRB) protein-staining assay was employed for measurement of in vitro growth inhibition and cytotoxicity (21) The appropriate cell density (cells/well) of NCI-H460 cells (1×10^4) was added in 96-well plates. The cell density used was dependent on the doubling time of the cell line leading to the formation of monolayer. After 24 h incubation, different doses of Compounds 1-3 were added and incubated for further 48 h. This was followed by fixation of cells with ice-cold trichloroacetic acid (50 μl, 50%) at room temperature for 30 min. The plates were carefully washed five times with distilled water, and left for overnight drying in air. Sulforhodamine B dye (100 μl, 0.4% in 1% acetic acid) was introduced in each well and after 30 min residual dye was removed using acetic acid (1%) and air-dried overnight. The bound SRB dye was solubilized in Tris-base solution (100 μl, 10 mM) with gentle shaking on a plate-shaker for 5 min prior to optical density (OD) measurements at 545 nm in a plate reader. Drug concentrations causing growth inhibition (GI50) of 50% cells were calculated from dose response curves and total growth inhibition of Compound 2 was also evaluated.

[6] = Homo sapiens, PBMC, 18 h, PHA-activated PBMC, 18 h, ELISA, read-out: IC50 (μM) IL-2

SMILES	IC50 [1] [µM]	effect on T-cell proliferation (in words) [1]	IC50 [2] [µM]	IC50 [3, 6] [µM]	effect on IL-2 production (in words) ([3]; PHA-activated PBMC)	IC50 [4] [µM]	anticancer activity against NCI-H460 cell line (in words) [5]	GI50 ([5]; NCI-H460, 48 h, SRB) [µM]	TGI (μM) ([5]; NCI-H460, 48 h, SRB)	effect on reactive oxygen species (ROS) production, isolated neutrophils (in words) [2]	IC50 ([3]; Homo sapiens, PBMC, FIG. 2, read-out: IL-2 production IC50 (unit inferred)) [µM]	effect on reactive oxygen species (ROS) production, whole blood phagocytes (in words) [4]	TGI ([5]; NCI-H460, 48 h, SRB) [µM]	IC50 ([3]; PHA-activated PBMC, 18 h, ELISA, read-out: IC50 (μM) IL-2) [µM]	growth inhibition of cancer cells at 100 μM (in words) ([5]; NCI-H460, 100 μM)
C[C@]12C=CC(=O)C=C1CC[C@@H]1[C@@H]2CC[C@@]2(C)[C@H]1CC[C@]2(C)O [Compound 1, dianabol, reference compound]	> 167	did not show any significant effect	> 167	> 167	did not show any significant effect	> 333	showed anticancer activity	28.3 ± 2.72	ND (ND: Values could not be determined indicates <50% inhibition of cell growth at maximum dose (100 μM) tested.)						
C[C@]12C=CC(=O)C[C@@H]1CC[C@@H]1[C@@H]2CC[C@@]2(C)[C@H]1CC[C@]2(C)O [Compound 2, 17β-hydroxy-17α-methyl-5α-androst-1-en-3-one]	< 10.3		> 166	16.9 ± 1.32		> 331	showed anticancer activity	22.5 ± 4.15		did not result in any significant effect	16.9 ± 1.32	did not result in any significant effect	60 ± 9.2		
C[C@]12CCC(=O)C[C@@H]1CC[C@@H]1[C@@H]2CC[C@@]2(C)[C@H]1CC[C@]2(C)O [Compound 3, 17β-hydroxy-17α-methyl-5α-androstan-3-one]	42.1	moderate inhibitory activity	> 164	49.3 ± 1.32	moderate inhibitory activity	> 329	non-active	> 100	ND (ND: Values could not be determined indicates <50% inhibition of cell growth at maximum dose (100 μM) tested.)	did not result in any significant effect		did not result in any significant effect		49.3 ± 1.32	not able to inhibit considerable growth of cancer cells
COc1cccc2c1C(=O)c1c(O)c3c(c(O)c1C2=O)C[C@@](O)(C(=O)CO)C[C@@H]3O[C@H]1C[C@H](N)[C@H](O)[C@H](C)O1 [doxorubicin, reference compound]								0.08 ± 0.02							
